Paper PMC9791135, “A penetratin-derived peptide reduces the membrane permeabilization and cell toxicity of α-synuclein oligomers” (The Journal of Biological Chemistry, 2022)
Where a SMILES comes first, the peptide text is derived from it.

Experiments:
Format in all cases: biochemical
[1] = molecular target: T1, αSOs (Homo sapiens, UniProt P37840); assay: Calcein release assay, αSOs together with peptides; conditions: for Effect on vesicle permeabilization by αSOs: αSOs at calcein^50% (5.2 μg/ml)
T1 construct: made in house; host or cells: Escherichia coli BL21 (DE3); oligomers formed by shaking the monomer and isolated by SEC (Superose 6)
Protocol: αSOs show cytotoxic properties, which have been attributed to their membrane-disrupting ability ([69]). To examine the effect of peptides on membrane permeabilization by αSOs, we used a simple calcein release assay. αSOs, peptides, and aSO–peptide mixtures at 10^−6 to 10^−1 mg/ml peptide were added to calcein-loaded DOPG vesicle, and the extent of calcein release was monitored for 30 min by the increase in fluorescence as calcein leaks out upon membrane permeabilization, leading to dilution and the loss of self-quenching. The time-dependent calcein release data from DOPG vesicles ([70], [71]) in the presence of peptides, αSOs, and αSO–peptides are shown in Figs. S9 and S10. In order to allow easy comparison of all peptides, the calcein release versus concentration (peptides and αSOs) were plotted at the plateau point of release (Fig. 5, A–C). […] Figure 5D compares calcein release percentages of data represented in Figure 5, A and B at peptide concentrations between 0.001 and 0.1 mg/ml, where we see the largest extent of calcein release in general.
Calcein-filled vesicles of DOPG were prepared as described before ([38]). Briefly, DOPG was dissolved in PBS to […], in the presence of calcein at self-quenching concentrations (70 mM) and subjected to 10 freeze–thaw cycles between liquid nitrogen and a 50 °C water bath. After 21 times extrusion through a 100 nm filter, free calcein was separated from vesicles with a PD-10 desalting column (GE Healthcare). Vesicles were stored at 4 °C and used for calcein release assays within 24 h.
Calcein release was measured by mixing peptides and/or αSOs at a final concentration of 10^−6 to 10^−1 mg/ml and 5.2 μg/ml, respectively, in 148 μl with 2 μl of calcein vesicles, and were then loaded onto a 96-well plate (Nunc, Thermo Fischer Scientific) in triplicate. The plate was sealed with Crystal clear sealing tape (Hampton Research), and fluorescence was measured (excitation: 485 nm and emission: 520 nm) for 1 h at 37 °C every 2 min with a 2 s autoshake before each reading on a fluorescence plate reader (Tecan). Finally, 2 μl Triton X-100 (0.2% [v/v]) was added to lyse vesicles, and the maximal fluorescence signal was measured for 20 min under the same reading condition. Background fluorescence was subtracted, and the average signal of calcein release before addition of Triton X-100 (F), after treatment with Triton X-100 (Ft) and for the buffer control (F0) were determined, and calcein release percentage was calculated as follow (Equation 1):(1) CalceinRelease%(CR%)=(F−F0)/(Ft−F0)

[2] = molecular target: T2, α-syn (Homo sapiens, UniProt P37840); assay: ThT fluorescence assay of unseeded α-syn fibrillation in the presence of peptides; conditions: 1 mg/ml α-syn, 0–0.5 mg/ml peptide, 48 h; for ThT signal end level: unseeded ThT, 37 °C, versus α-syn alone
T2 construct: made in house; host or cells: Escherichia coli BL21 (DE3), plasmid pET11-D
Protocol: To test the effects of these selected nine peptides on the aggregation of α-syn, we performed a thioflavin T (ThT) fluorescence assay in the presence of 1 mg/ml α-syn and 0 to 0.5 mg/ml peptide for 48 h (raw data in Fig. S3). Furthermore, the peptides alone were monitored for self-fibrillation. […] High concentrations of p222, p194, and p249 led to a decline in ThT fluorescence after reaching a plateau, possibly because of the formation of insoluble amorphous species. We also carried out seeding experiments by adding 5% sonicated preaggregated α-syn fibrils to the ThT assay.
About 150 μl of 70 μM (1 mg/ml) α-syn, 40 μM ThT, and varying amounts of peptides (0, 0.06, 0.125, 0. 25, 0.375, and 0.5 mg/ml) were transferred in triplicates to a black COSTAR 96-well clear bottom plate (Nunc, Thermo Fisher Scientific), and including a 3 mm diameter glass bead (Glaswarenfabrik Karl Hecht GmbH & Co KG) per well to increase reproducibility ([100]). The plate was sealed with Crystal Clear sealing tape (Hampton Research) and incubated at 37 °C in a CLARIOstar Plus (BMG LABTECH) fluorescence plate reader. Fibrillation was carried out for ∼48 h with 300 rpm double orbital shaking between the readings for 372 s (excitation/emission: 448∕485 nm). Seeding experiments were performed using the same setting as for the fibrillation assay as described ([39]). Briefly, the experiments were done in triplicates in the presence of 0.05 mg/ml of α-syn fibril seeds (5% seeding) and 1 mg/ml of peptides in a solution of 1 mg/ml α-syn in 96-well plates.

[3] = molecular target: T2, α-syn; assay: ATR–FTIR of fibrillated α-syn–peptide samples; conditions: for Amount of amyloid structures (ATR–FTIR), in words: fibrillated α-syn samples in the presence of peptides; for ATR–FTIR (amyloid structures): fibrillated samples after washing, versus α-syn alone
Excerpt: To analyze the secondary structure of the final aggregates, we recorded far-UV CD and attenuated total reflectance (ATR)–FTIR spectra for fibrillated samples after washing to remove free α-syn and peptides. […] Overall, as the concentration of peptides increases, the intensity of signal at 218 nm decreases (Fig. 4A). We observed that α-syn fibrils formed in the presence of p194, p222, p235, and p249 precipitated rapidly after mixing with these peptides. This likely gives rise to light scattering, which reduces CD signals. To overcome these artifacts, we turned to ATR–FTIR spectroscopy, which is not sensitive to scattering. […] Both far-UV CD and ATR–FTIR spectroscopy confirm extensive β-sheet structure. However, in the presence of peptides, some structural changes were observed as reflected by the decrease in the amyloid cross β-sheet structure at ∼1629 cm^−1 and increases in the random and coil structures (∼1656 and ∼1676 cm^−1, respectively) (Table 2). […] Taking all together, ATR–FTIR data are in reasonable agreement with far-UV CD.
The samples prepared in the CD section were also used to measure FTIR spectra on a Tensor 27 FTIR spectrophotometer (Bruker). About 2 μl α-syn fibrils were dried on the ATR crystal with a gentle stream of nitrogen gas. Spectra were accumulations of 68 scans in the 4000 to 1000 cm^−1 range. Baseline correlation, second derivative, and atmospheric compensation were performed with OPUS 5.5 software (Bruker, Germany). Signals in the amide I region (∼1550–1700 cm^−1) were smoothed and deconvoluted with PeakFit, version 4.12 software (ِSystat Software Inc) using Lorentzian fitting.

Molecule: CC(C)C[C@H](NC(=O)[C@H](Cc1c[nH]cn1)NC(=O)[C@H](CO)NC(=O)[C@H](CO)NC(=O)[C@H](C)NC(=O)[C@@H](N)CO)C(=O)N[C@@H](Cc1c[nH]cn1)C(=O)N[C@@H](Cc1c[nH]cn1)C(=O)NCC(=O)N[C@@H](Cc1c[nH]cn1)C(=O)N[C@@H](CO)C(=O)NCC(=O)NCC(=O)O [p168] (H-SASSHLHHGHSGG-OH)
- Effect on vesicle permeabilization by αSOs ([1]; peptide 10^−6 to 10^−1 mg/ml): failed to affect vesicle permeabilization by αSOs
- Effect on α-syn aggregation (ThT), in words [2]: did not change the lag phase duration
- Amount of amyloid structures (ATR–FTIR), in words [3]: did not show significant changes in FTIR spectra

Molecule: CC[C@H](C)[C@H](NC(=O)[C@H](Cc1c[nH]c2ccccc12)NC(=O)[C@H](CCCNC(=N)N)NC(=O)[C@H](Cc1c[nH]c2ccccc12)NC(=O)[C@H](CCCCN)NC(=O)[C@@H](NC(=O)[C@H](CCCCN)NC(=O)[C@H](CCC(N)=O)NC(=O)[C@@H](N)CC(N)=O)[C@@H](C)CC)C(=O)N[C@@H](CCC(N)=O)C(=O)N[C@@H](CCCNC(=N)N)C(=O)N[C@@H](Cc1ccccc1)C(=O)N[C@@H](CCCNC(=N)N)C(=O)N[C@@H](CCCCN)C(=O)N[C@@H](CCCCN)C(=O)N[C@@H](CCSC)C(=O)O [p235] (H-NQKIKWRWIQRFRKKM-OH; N-terminus and C-terminus assumed)
- Effect on α-syn aggregation (ThT), in words [2]: slight aggregation-promoting effect
- ThT signal end level [2]: ↑↑
- ATR–FTIR (amyloid structures) [3]: ↓↓↓ amyl
- Amount of amyloid structures (ATR–FTIR), in words [3]: decreased

Molecule: CC[C@H](C)[C@H](NC(=O)[C@H](Cc1ccccc1)NC(=O)[C@H](Cc1c[nH]c2ccccc12)NC(=O)[C@H](CCCNC(=N)N)NC(=O)[C@H](CC(N)=O)NC(=O)[C@@H](NC(=O)[C@H](CCC(N)=O)NC(=O)[C@H](CCCCN)NC(=O)[C@@H](N)CCSC)[C@@H](C)CC)C(=O)N[C@@H](CCCNC(=N)N)C(=O)N[C@@H](Cc1c[nH]c2ccccc12)C(=O)N[C@@H](CCC(N)=O)C(=O)N[C@@H](CCCCN)C(=O)N[C@@H](CCCCN)C(=O)N[C@@H](CCCNC(=N)N)C(=O)N[C@@H](CCCCN)C(=O)O [p249] (H-MKQINRWFIRWQKKRK-OH; N-terminus and C-terminus assumed)
- Reduction of αSO-induced membrane permeability ([1]; calcein-filled DOPG LUVs, peptide concentration not stated at the place): 62%
- Effect on α-syn aggregation (ThT), in words [2]: slight aggregation-promoting effect
- ATR–FTIR (amyloid structures) [3]: ↓↓↓ amyl
- Amount of amyloid structures (ATR–FTIR), in words [3]: decreased

Molecule: RQIKIWFQNRRFKWKK [p222, penetratin with modulated hydrophobicity]
- Effect on vesicle permeabilization by αSOs ([1]; peptide 0.01 and 0.1 mg/ml): increased vesicle permeabilization by αSOs
- Effect on α-syn aggregation (ThT), in words [2]: slight aggregation-promoting effect
- ThT signal end level [2]: ↑↑
- ATR–FTIR (amyloid structures) [3]: ↓↓ amyl
- Amount of amyloid structures (ATR–FTIR), in words [3]: decreased
